The target of test [1] is T1, AtMTAN1 (Arabidopsis thaliana, UniProt Q9T0I8). The conditions noted are these: ref Siu et al., 2008a, cited from earlier work; for hydrolysis of substrates with extended 5′-substituents by AtMTAN1: previous kinetics studies.
In a further test the target is AtMTAN1-Glu202Gln (Arabidopsis thaliana, UniProt Q9T0I8, E202Q). The experiment in a line: Isothermal titration calorimetry, ligand binding to AtMTAN1-Glu202Gln mutant.
The target of another test is EcMTAN-Glu174Gln (Escherichia coli, UniProt P0AF12, E174Q). Description: Isothermal titration calorimetry, ligand binding to EcMTAN-Glu174Gln mutant. The conditions noted are these: for N: ITC stoichiometry; for ΔH / −TΔS: pH 7.5, 25 °C.
In test [2] the target is T1, AtMTAN1. The experiment in a line: Xanthine oxidase-coupled spectrophotometric assay of substrate hydrolysis. The format is biochemical.
Test [3] deals with T1, AtMTAN1. Description: Isothermal titration calorimetry, ligand binding to wild-type AtMTAN1.
In the next test the test system is AtMTAN2. The conditions noted are these: ref Siu et al., 2008a; cited from earlier work.
The subject of a further test is EcMTAN. As to conditions: substrate SAH; no reference and method not given.
The mark [4] stands for this setting: ITC stoichiometry, single-binding site model.
Setting [5] is: ITC, 50 mM sodium-HEPES pH 7.5, 25 °C, single-binding site model.

“Also recorded” adds a separate entry of the source. Like-named read-outs stand apart in the source and are kept apart here.

On to 5′-butylthioadenosine, for which the “hydrolysis of substrates with extended 5′-substituents by AtMTAN1” value on AtMTAN1 [1] is “can hydrolyze”.

Consider 5′-isobutylthioadenosine, for which, on AtMTAN1 [1], the “hydrolysis of substrates with extended 5′-substituents by AtMTAN1” value is “can hydrolyze”.

For 5′-methylthioadenosine [MTA], the N is on record as 0.97 ± 0.04 on AtMTAN1-Glu202Gln (setting [4]) and 0.94 ± 0.01 at EcMTAN-Glu174Gln (single-binding site model). Moreover, the Kd turned out to be 94.8 ± 4 µM at AtMTAN1-Glu202Gln (setting [5]) and 4.8 ± 0.4 µM at EcMTAN-Glu174Gln (setting [5]). For the same compound, the ΔH is 5.6 ± 0.3 kcal/mol at AtMTAN1-Glu202Gln (ITC, pH 7.5, 25 °C) and -9.6 ± 0.1 kcal/mol at EcMTAN-Glu174Gln (ITC). Besides, the “−TΔS” value was -11.1 kcal/mol at AtMTAN1-Glu202Gln (ITC, pH 7.5, 25 °C) and 2.4 kcal/mol on EcMTAN-Glu174Gln (ITC). Also, at AtMTAN1 [2] (substrate MTA, wild-type AtMTAN1, no reference given), the Km worked out at 1.5 ± 0.2 µM.

As for `Nc1ncnc2[nH]cnc12` [ADE, adenine], at AtMTAN1 [3], the Kd is 1.7 ± 0.1 µM. The N on AtMTAN1 [3] (setting [4]) stood at 0.99 ± 0.003. For the same compound, at AtMTAN1 [3] (ITC, pH 7.5, 25 °C), the ΔH is -10.3 ± 0.5 kcal/mol and the “−TΔS” value is 2.4 kcal/mol.

On to `Nc1ncnc2c1ncn2[C@@H]1O[C@H](CSCC[C@H](N)C(=O)O)[C@@H](O)[C@H]1O` [SAH, S-adenosylhomocysteine], for which the “activity of AtMTAN1 towards the substrate” value at AtMTAN1 [1] was “completely inactive”. For the same compound, the “activity towards the substrate” value with AtMTAN2 is reported as 14%. For the same compound, the Km in the test on EcMTAN was determined as 1.3 ± 0.2 µM. The figures for the Kd on AtMTAN1-Glu202Gln, on AtMTAN1-Glu202Gln (setting [5]) and on EcMTAN-Glu174Gln were greater than 600 µM, “No interaction is detected; also recorded: Not detected” and 9.3 ± 0.4 µM, respectively. The same compound had a N on EcMTAN-Glu174Gln (single-binding site model) of 0.94 ± 0.01. In addition, the ΔH on EcMTAN-Glu174Gln (ITC) was -7.9 ± 0.1 kcal/mol. For the same compound, at EcMTAN-Glu174Gln (ITC), the “−TΔS” value worked out at 1.0 kcal/mol. Moreover, at AtMTAN1 [2] (kinetics and ITC studies, 10- and 30-min durations), the “catalytic activity (hydrolysis) of AtMTAN1 towards the substrate” value is reported as “does not hydrolyze; also recorded: did not detect catalytic activity”.

The record behind these values is article PMC3006453 (Journal of structural biology, 2010).
